From ChEMBL document CHEMBL1201862, “PubChem BioAssay data set” (2004)
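Test compounds were applied to cells in 96-well plates for 48 hours at 5 doses. GI50: concentration for 50% inhibition of growth.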 Active and inactive are the calls of the source. Rule as the data show it: active = GI50 up to about 1.1 µM and inactive = higher.

How the values were obtained:
Assay in all cases: NCI anticancer screen, dose series, 48 h
[1] = test system: CAKI-1
[2] = test system: COLO 205
[3] = test system: EKVX
[4] = test system: HCC 2998
[5] = test system: HOP-62
[6] = test system: HOP-92
[7] = test system: MCF7
[8] = test system: MDA-MB-231
[9] = test system: Malme-3M
[10] = test system: NCI-H23
[11] = test system: OVCAR-4
[12] = test system: OVCAR-8
[13] = test system: SF-268
[14] = test system: SK-MEL-2
[15] = test system: SK-MEL-5
[16] = test system: SN12C
[17] = test system: SR
[18] = test system: U-251
[19] = test system: UO-31
[20] = test system: RPMI-8226

| Structure (SMILES) | GI50 [1] | GI50 [2] | GI50 [3] | GI50 [4] | GI50 [5] | GI50 [6] | GI50 [7] | GI50 [8] | GI50 [9] | GI50 [10] | GI50 [11] | GI50 [12] | GI50 [13] | GI50 [14] | GI50 [15] | GI50 [16] | GI50 [17] | GI50 [18] | GI50 [19] | GI50 [20] |
| --- | --- | --- | --- | --- | --- | --- | --- | --- | --- | --- | --- | --- | --- | --- | --- | --- | --- | --- | --- | --- |
| CCCCCCCCCC(=O)OCC1(CO)C/C(=C/CC(C(C)C)C(C)C)C(=O)O1 (centres undefined) | 16 µM (inactive) | 9.18 µM (inactive) | 70.1 µM (inactive) | 39.3 µM (inactive) | 30 µM (inactive) | > 100 µM (inactive) | 59 µM (inactive) | 51.3 µM (inactive) | 23 µM (inactive) | > 100 µM (inactive) | 61.2 µM (inactive) | 47.1 µM (inactive) | > 100 µM (inactive) | > 100 µM (inactive) | 25.7 µM (inactive) | 51.9 µM (inactive) | 26.2 µM (inactive) | 26.7 µM (inactive) | 28.7 µM (inactive) | – |
| COc1ccc(NC(C)=O)cc1N1C(=O)/C(=C\c2cccc(Oc3ccccc3)c2)SC1c1ccccc1 (centres undefined) | 28.4 µM (inactive) | 19.4 µM (inactive) | 33.3 µM (inactive) | 36.1 µM (inactive) | 34.3 µM (inactive) | 20.9 µM (inactive) | 23.8 µM (inactive) | 37.8 µM (inactive) | 65.6 µM (inactive) | 46 µM (inactive) | 14.2 µM (inactive) | 22.5 µM (inactive) | – | 30.5 µM (inactive) | 30.5 µM (inactive) | 20.4 µM (inactive) | 3.7 µM (inactive) | 25.8 µM (inactive) | 17.3 µM (inactive) | 17.4 µM (inactive) |
| CN(C(=O)c1cccs1)C(=S)N1CCN(c2ccccc2)CC1 | – | > 100 µM (inactive) | – | > 100 µM (inactive) | – | 91.8 µM (inactive) | > 100 µM (inactive) | > 100 µM (inactive) | > 100 µM (inactive) | > 100 µM (inactive) | > 100 µM (inactive) | > 100 µM (inactive) | > 100 µM (inactive) | > 100 µM (inactive) | > 100 µM (inactive) | > 100 µM (inactive) | 54.2 µM (inactive) | > 100 µM (inactive) | > 100 µM (inactive) | 52.2 µM (inactive) |
| O=C(Nc1cc2c(=O)oc3ccccc3c2oc1=O)c1cccnc1 | > 100 µM (inactive) | > 100 µM (inactive) | > 100 µM (inactive) | > 100 µM (inactive) | – | > 100 µM (inactive) | > 100 µM (inactive) | > 100 µM (inactive) | > 100 µM (inactive) | > 100 µM (inactive) | > 100 µM (inactive) | 45 µM (inactive) | – | 83.2 µM (inactive) | > 100 µM (inactive) | > 100 µM (inactive) | 78.5 µM (inactive) | 35.6 µM (inactive) | > 100 µM (inactive) | – |
| COc1ccc(OC)c(C2CCCc3c2cnc2nc(N)nc(N)c32)c1 (centres undefined) | 0.0982 µM (active) | 0.352 µM (active) | > 100 µM (inactive) | < 0.01 µM (active) | – | 0.863 µM (active) | < 0.01 µM (active) | > 100 µM (inactive) | < 0.0238 µM (active) | < 0.01 µM (active) | > 100 µM (inactive) | < 0.01 µM (active) | – | > 100 µM (inactive) | < 0.01 µM (active) | < 0.01 µM (active) | < 0.01 µM (active) | – | – | 0.0695 µM (active) |
| COC(=O)C1=C(C(=O)OC)SC(=C2SCSC3=C2SC(C(=O)OC)=C(C(=O)OC)C32SC3=C(CCCC3)S2)S1 | > 100 µM (inactive) | > 100 µM (inactive) | > 100 µM (inactive) | > 100 µM (inactive) | > 100 µM (inactive) | 56.2 µM (inactive) | > 100 µM (inactive) | 95.3 µM (inactive) | > 100 µM (inactive) | > 100 µM (inactive) | > 100 µM (inactive) | > 100 µM (inactive) | > 100 µM (inactive) | > 100 µM (inactive) | > 100 µM (inactive) | > 100 µM (inactive) | > 100 µM (inactive) | 47.6 µM (inactive) | > 100 µM (inactive) | – |
| O=C(Nc1ccc(Cl)cc1)c1cc2c(cc1Cl)SC(NNCCO)=NS2(=O)=O | > 100 µM (inactive) | 49.7 µM (inactive) | > 100 µM (inactive) | > 100 µM (inactive) | > 100 µM (inactive) | 92.3 µM (inactive) | 98.9 µM (inactive) | > 100 µM (inactive) | – | > 100 µM (inactive) | > 100 µM (inactive) | > 100 µM (inactive) | > 100 µM (inactive) | > 100 µM (inactive) | > 100 µM (inactive) | – | > 100 µM (inactive) | > 100 µM (inactive) | > 100 µM (inactive) | > 100 µM (inactive) |
| COc1cc2c(cc1OC)C(N)CC2=O (centres undefined) | > 100 µM (inactive) | > 100 µM (inactive) | > 100 µM (inactive) | > 100 µM (inactive) | > 100 µM (inactive) | > 100 µM (inactive) | > 100 µM (inactive) | > 100 µM (inactive) | – | > 100 µM (inactive) | > 100 µM (inactive) | > 100 µM (inactive) | > 100 µM (inactive) | > 100 µM (inactive) | > 100 µM (inactive) | > 100 µM (inactive) | > 100 µM (inactive) | > 100 µM (inactive) | > 100 µM (inactive) | > 100 µM (inactive) |
